“And” between values parts separate entries of the source, which are not always exact repeats. Equal entries are not always repeated. “Also recorded” adds a separate entry of the source. Where only a bound is given, the exact number is not on record here.

The test system of assay [1] is MRSA. Kind of assay: MRSA CFU counts on agar with trimethoprim or erythromycin after sub-lethal NIMELS laser (Example VIII). The class given is cell-based, Staphylococcus aureus. An excerpt:
The following illustrates the general antibacterial methods according to the invention, using a MRSA model for the in vitro Experiments V and VIII-XII.
a) μ1 is sub-lethal dosimetry from the NIMEL laser system on MRSA as a control and;

The subject of assay [2] is MRSA. Kind of assay: MRSA/antimicrobial potentiation Experiment 4: CFU with or without methicillin, penicillin G or erythromycin, groups A4 to F4. In kind it is cell-based, Staphylococcus aureus. As to conditions: for CFU: agar with 4 μg/ml erythromycin.
Description: Two different laser dosages based on an effective dose established in previous experiments were used to treat a saline-suspension of logarithmically growing MRSA, labeled A4 to F4.
After 24 hrs of growth at 37° C. colonies were counted.
Assay [3] has as its system MRSA colonization in the nares. The assay is described as follows: Human study Part One: nasal colonization of MRSA, NOVEON laser alone, with H2O2 or with topical erythromycin. In kind it is in vivo, Staphylococcus aureus. Here is the method:
(§1) This investigational protocol was an open-label study of subjects who are colonized with MRSA in the nares (nostril). The study was done in two parts.
(§2) In this human study, three arms were produced. […] This was done on day 1 and again on day three; and Arm #3: ⅓ of the subjects were treated with the laser and then a topical antibiotic three times a day for five days. Prior to enrollment in this study, prospective subjects met all of the following criteria: age≧18 years and ≦70 years of age; previous positive MRSA culture; negative urine pregnancy test or post-menopausal for one year; willing to comply with study requirements, including return visits and self-application of topical antibiotics; and willing to provide informed consent to participate. Prospective subjects were excluded from this study if any of the following criteria were met: pregnancy; patients who are severely immunocompromised (such as may occur in AIDS, renal transplant regimens, immunosuppressed states consequent to malignancy or agents used in rendering oncologic care, or who suffer from end stage renal disease); diabetic patients; allergy to antimicrobials being used in the study (group 3).
(§3) All participants underwent an initial quantitative assessment for nasal carriage of S. aureus, during their first visit. Each participant had the anterior nares (each nostril) sampled for culture with a circular movement (three rotations on each side) of a sterile wood applicator plain Rayon® tipped swab in each nostril and placed in a labeled tube. 2 ml of room temp phosphate buffered saline was placed in the tube after the removal of the swab (to completely cover the swab in the tube). Each swab was then placed back in the tube and the tube was then vortexed for 15 seconds to disperse isolates of MRSA and/or MSSA into the PBS solution. Aliquots of PBS from the tube were plated in the following manner: 100 μl from each tube was lawn plated in triplicate (3×) on selective Chromogenic MRSA And MSSA agar. Plates were placed in incubator within 30 minutes of the plating procedure, and colonies were counted manually, and recorded 18 hrs after plating.
(§4) On day one of the study, all subjects underwent this exact procedure in arms 1 and 2 of the study two minutes before the laser procedure. They again were sampled in the same manner 2 minutes after the laser procedure. In the third arm of the study, they were swabbed two minutes before the procedure and the first antibiotic administration was completed after the laser therapy. The post/laser swab sample was taken for this arm 20 min later.
(§5) On day three of the study, all subjects from arms one two and three underwent the exact same procedures as day 1 of the study.
(§6) On day five all subjects from all arms underwent just one swabbing per nostril with the exact same sampling procedure one time.
(§7) 3% OTC hydrogen peroxide was applied to a cotton pledget for application to the subject prior to irradiation. This was inserted in the nose for 120 seconds and then removed. The subjects were then given doses of phototherapeutic near infrared radiation as described.
(§8) The subjects were first given doses of phototherapeutic near infrared radiation as described. […] The swab was inserted approximately 1 cm in to the anterior nares and rotated 360 degrees several times and removed. Patients were instructed to perform the exact application procedure 3 times a day for the remaining 5 days.
(§9) The NOVEON™ laser was used for two (2) six-minute treatments in each nostril on day (1) and day (3) of the study.
(§10) The laser was calibrated before the first treatment of the day. Intermittent temperature testing of the treatment site was performed on each subject using a noncontact infrared thermometer (Raytek Minitemp), 30-60 second intervals. If a temperature of 110 F degrees was reached, or the patient complained of pain, the laser treatment was interrupted and only resumed when the patient was comfortable.

For assay [4], the system named is MSSA colonies in the nares. Kind of assay: Human study Part One: nasal colonization of MSSA, NOVEON laser alone, with H2O2 or with topical erythromycin. In kind it is in vivo, Staphylococcus aureus. As to conditions: patient 01-005, Laser/erythromycin arm. Here is the method: as §1, §2, §3, §4, §5, §6, §7, §8, §9, §10
Assay [5] concerns nasal colonization of MRSA. Kind of assay: Human study Part Two: nasal colonization of erythromycin resistant MRSA, NOVEON laser plus 2% erythromycin paste. In kind it is in vivo, Staphylococcus aureus. The following applies: six patients, before phototherapy. Here is the method: (§11) A second human study was conducted, to further evaluate the therapeutic potential of the NOVEON™ laser system, including its ability to reverse drug resistance in bacteria. The study was conducted in a similar manner as Part One, above. Outcome measures assessed included both laboratory study and clinical observations.
(§12) Positive anterior nares cultures were obtained in six patients (12 nostrils) having nasal colonization of MRSA or MSSA, before initiating bacterial photodamage through doses of phototherapeutic near infrared radiation.
(§13) The swab was inserted approximately 1 cm in to the anterior nares of the subject, rotated 360 degrees several times and removed.
(§14) The laser was calibrated before the first treatment of the day and between each patient. The NOVEON™ laser was used for four six-minute treatments of the nares at the following sets of dosimetries (Tables 45), which were evaluated for safety in previous studies. Utilizing a 10 cm flat-top diffuser, each patient underwent exposure with the Noveon for […] (energy density—207 J/cm2) to each anterior nostril on Day 1 and on Day 3. The treatment was divided into two parts, an approximately 3-minute exposure using a combination of 870 nm and 930 nm and an approximately 3-minute exposure of 930 nm alone. Temperatures of the nares were recorded every 30 seconds with an IR temperature thermometer.

The test system of assay [6] is nasal colonization of MSSA. The assay is described as follows: Human study Part Two: nasal colonization of erythromycin resistant MSSA, NOVEON laser plus 2% erythromycin paste. In kind it is in vivo, Staphylococcus aureus. The following applies: six patients, before phototherapy. Here is the method: as §11, §12, §13, §14
[7] abbreviates: patient 01-005, Laser/erythromycin arm, 2% erythromycin paste 3 times a day.

`CC[C@H]1OC(=O)[C@H](C)[C@@H](O[C@H]2C[C@@](C)(OC)[C@@H](O)[C@H](C)O2)[C@H](C)[C@@H](O[C@@H]2O[C@H](C)C[C@H](N(C)C)[C@H]2O)[C@](C)(O)C[C@@H](C)C(=O)[C@H](C)[C@@H](O)[C@]1(C)O` [Erythromycin]: the “MRSA colony count, EXPERIMENTAL, erythro 4 ug/ml” value with MRSA [1] (sub-lethal NIMELS laser, then plated on agar with erythromycin 4 ug/ml, plates B-4 1 to 5) is 27 and 39 and 35 and 28. The “effect of sub-lethal NIMELS on antibiotic resistance of MRSA (in words)” value in the assay with MRSA [1] (sub-lethal laser parameters, erythromycin 4 ug/ml) is listed as “resistance to erythromycin being reversed”. Also, the CFU in the assay with MRSA [2] (Group E4, Exp (laser treated), replicate plates 1-5) is 0 CFU (3×) and 1 CFU (2×); with MRSA [2] (Group F4, Cont (no laser), replicate plates 1-5, 24 hrs 37° C.), 170 CFU; with MRSA [2] (Group F4, Exp (laser treated), replicate plates 1-5), 2 CFU and 7 CFU and 6 CFU (2×) and 8 CFU. Moreover, the “synergy or potentiation with NIMELS in growth inhibition of MRSA colonies (in words)” value in the assay on MRSA [2] (sub-lethal NIMELS dosimetry, bar chart figure) is listed as “synergistic effects; also recorded: potentiated to a greater extent”. For the same compound, the “reversal of MRSA resistance in vitro by dual wavelength NOVEON laser (in words)” value with MRSA [2] (temperature levels not lethal to the organism) was “successful reversal of MRSA resistance”. The “outcome on MRSA colonization (in words)” value in assay [3] (patient 01-005, Laser/erythromycin arm) was “MRSA and MSSA eradication in both nostrils”. Besides, the “reduction of bioburden, heavily colonized nostril” value in assay [3] (setting [7]) is listed as at least 3 log. The “reduction of bioburden, moderately colonized nostril” value in assay [3] (setting [7]) was at least 2 log. Further, the “sensitivity of the patient's MRSA colony to erythromycin before phototherapy” value in assay [3] (patient 01-005, prior to phototherapy) is “not sensitive to erythromycin prior to phototherapy”. In assay [4], the “outcome on MSSA colonization (in words)” value is “MRSA and MSSA eradication in both nostrils”. The “erythromycin resistance of cultured MRSA at baseline” value in assay [5] is reported as “resistant to erythromycin”. For the same compound, the “erythromycin resistance of cultured MSSA at baseline” value in assay [6] is reported as “resistant to erythromycin”.
